This is an account of results in patent EP1758924B1, “PEPTIDES ANTAGONISTS FOR […] SHOCK PROTEIN (HSP 16.3) OF MYCOBACTERIUM TUBERCULOSIS” (priority 2004, dated 2005).

Assay [1] concerns the target T1, Hsp16.3 (Mycobacterium tuberculosis, UniProt P9WMK1). Kind of assay: biochemical. The format is binding. As to conditions: fluoresceinated peptide 200 nM, 50 mM sodium phosphate buffer, pH 7.5, 300 mM NaCl, 25°C, single-site fit.
In assay [2] the target is T1, Hsp16.3. Kind of assay: Peptide inhibition assay for Hsp16.3 chaperon activity (heat-induced ADH aggregation, A360). In kind it is biochemical. As to conditions: for IC50: IC50 (concentration of peptide at which 50% inhibition of chaperon activity was observed), 5 µM ADH, 50°C, ADH:Hsp16.3 5:4, A360 at 1200 sec. From the text:
The binding of a peptide need not necessarily result in inhibition. Inhibition will happen only if binding leads to significant changes in the active site. […] A part of the invention is the development of a peptide inhibition assay for Hsp16.3. The method is based on aggregation based assays. The standard assay used for assaying the activity of alpha-crystallin like proteins is to study the protection it confers against heat induced aggregation of proteins, the aggregation activity being measured spectrophotometrically. Yeast alcohol dehydrogenase (ADH), purchased from Sisco Research Laboratory, Mumbai, India, is used for aggregation studies. Aggregation of 5 µM ADH at 50°C can be measured as an apparent optical density at 360 nm using a spectrophotometer equipped with a thermostated cuvette holder in a total reaction volume of 500 µl. The chaperon activity of Hsp16.3 can be determined by mixing ADH with Hsp16.3 at a molar ratio of 5:4 which is equivalent to a ratio of about 12:1 between ADH and Hsp16.3 assuming a nonameric structure of Hsp16.3 as the functional unit (Chang et al., 1996) and aggregation rates again determined spectrophotometrically. Then the same experiment can be repeated in the presence of increasing concentrations of peptide inhibitors.
A part of the invention is the peptide inhibition assay for Hsp16.3 comprising of heat treating ADH alone, ADH + Hsp16.3 and ADH + Hsp16.3 + 25, 50 and 100 µM peptide. When ADH is heated it aggregates and there is an increase of optical density. In the presence of Hsp16.3 aggregation is prevented, but in the presence of peptide aggregation is again observed if Hsp16.3 activity is inhibited. Aggregation of 5 µM ADH at 50°C was measured as an apparent optical density at 360 nm using Hitachi spectrophotometer equipped with a thermostated cuvette holder in a total reaction volume of 500 µl. The chaperon activity of Hsp16.3 was determined by mixing ADH with Hsp16.3 at a molar ratio of 5:4 and aggregation rates were again determined spectrophotometrically. Then the same experiment was performed in the presence of increasing concentrations of the Hsp16.3 binding peptides (Seq IDs 10 and 22) (Figure 2).
Aggregation assays were performed by heating 5 µM Alcohol dehydrogenase (ADH) to 50°C directly in a spectrophotometer using a thermostated cuvette holder in a total reaction volume of 500 µl. Absorbance was monitored at 360 nm (A360) for 1200 seconds and readings were taken at every 100 seconds interval. When the A360 values were plotted against time (black triangle) it was observed that absorbance increased with time reaching near saturation level at the1200 sec time point. The increase in absorbance indicates aggregation of ADH. […] However the same effect may be obtained if the peptide instead of inhibiting the activity of Hsp16.3 promotes the aggregation of ADH. To eliminate such a possibility a control experiment was done in which the peptide alone was added to ADH.
To obtain a more quantitative interpretation of the data the % residual chaperon activity of Hsp 16.3 in the presence of different concentrations of inhibitor was derived as follows, the A360 values at the saturation point (1200 secs) being taken into consideration.
The % chaperon activity was then plotted against peptide concentration (Fig. 2B). From the resulting curve it is apparent that chaperon activity decreases exponentially with increasing concentration of peptide. […]

For assay [3], the target named is T1, Hsp16.3. Kind of assay: NMR (TOCSY) comparison of amide proton chemical shifts of free peptide and peptide with Hsp16.3. To be noted: 0.1 mM protein, 2 mM peptide, 20 mM sodium phosphate pH 7.0, 250 mM NaCl, 4°C. In kind it is binding. As for the experimental part: All NMR spectra were taken in a Bruker DRX-500 NMR spectrometer equipped with a Z-field gradient probe. All measurements were done in high precision 5-mm NMR tubes in 20 mM sodium phosphate buffer, pH 7.0, containing 250 mM NaCl in 90% H2O and 10% D2O. All NMR experiments were done at 4°C, unless stated otherwise. TOCSY spectra were measured using standard pulse sequences in the Bruker pulse library using WATERGATE water suppression method. Standard Bruker software (Xwin-NMR version 1.3) was used to acquire and process the NMR data. The NMR samples were adjusted to a protein concentration of 0.1 mM and a 20-fold ligand excess (2 mM) over binding sites was used throughout the studies.
The comparison of chemical shifts of amide protons of free peptide (Seq ID 10) (A) and peptide with Hsp16.3 protein (B). Resonance assignments are indicated with a one-letter amino acid code. All NMR spectra were taken in a Bruker DRX-500 spectrometer equipped with a Z-field gradient probe. All measurements were done in high precision 5-mm NMR tubes in 20 mM sodium phosphate buffer, pH 7.0, containing 250 mM NaCl in 90% H2O and 10% D2O at 4°C. TOCSY spectra were measured using standard pulse sequences in the Bruker pulse library using WATERGATE water suppression method. Standard Bruker software (Xwin-NMR version 1.3) was used to acquire and process the NMR data. […]

In the next assay the target is T2, human alphaB-crystallin (Homo sapiens, UniProt P02511).
T2 construct: expression vector from Dr. W.C; Boelens, University of Nijmegen
T2 sequence (P02511 1-175): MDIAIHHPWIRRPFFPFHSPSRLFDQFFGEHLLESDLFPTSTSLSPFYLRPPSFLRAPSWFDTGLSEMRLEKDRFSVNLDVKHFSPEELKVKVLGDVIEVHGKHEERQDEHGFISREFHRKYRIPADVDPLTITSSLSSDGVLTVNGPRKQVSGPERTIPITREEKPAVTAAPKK
Kind of assay: ADH aggregation assay with alphaB-crystallin instead of Hsp16.3 (specificity). The format is biochemical. As to conditions: 25, 50, 100 µM peptide; ADH:alphaB-crystallin 5:4.

Each structure is given as a SMILES string. Values joined by “and” are separate entries in the source; they are usually repeats but may differ in a detail not shown here. Equal values may be shown once. Residues, ends and D or L forms follow the SMILES beside them.

T1 sequence (P9WMK1 whole entry, looked up): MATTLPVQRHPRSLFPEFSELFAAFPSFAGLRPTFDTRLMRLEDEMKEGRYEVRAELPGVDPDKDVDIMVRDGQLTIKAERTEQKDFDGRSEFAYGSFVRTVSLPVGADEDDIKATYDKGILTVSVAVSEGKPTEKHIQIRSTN

Regarding `CC[C@H](C)[C@H](NC(=O)[C@@H]1CCCN1C(=O)[C@@H](NC(=O)[C@H](Cc1c[nH]cn1)NC(=O)[C@H](CCCNC(=N)N)NC(=O)[C@H](Cc1c[nH]cn1)NC(=O)[C@H](CCCCN)NC(=O)[C@H](Cc1ccccc1)NC(=O)[C@H](Cc1c[nH]cn1)NC(=O)[C@H](Cc1c[nH]cn1)NC(=O)[C@@H]1CCCN1C(=O)[C@@H](N)Cc1ccc(O)cc1)[C@@H](C)CC)C(=O)NCC(=O)NCC(=O)NCC(=O)N[C@@H](CO)C(N)=O` [Seq ID 22, Tyr-Pro-His-His-Phe-Lys-His-Arg-His-Ile-Pro-Ile-Gly-Gly-Gly-Ser] (H-YPHHFKHRHIPIGGGS-NH2), the Kd (commonly the equilibrium constant for the complex coming apart) at Hsp16.3 [1] is ~40 µM and 40 µM. In addition, the IC50 (as a rule, the point on the concentration scale where inhibition reaches its midpoint) on Hsp16.3 [2] was 57 µM and 52 µM.
For `CSCC[C@H](NC(=O)[C@@H](N)CCCCN)C(=O)N[C@@H](Cc1c[nH]cn1)C(=O)N[C@@H](C)C(=O)N[C@H](C(=O)N[C@@H](CC(N)=O)C(=O)N[C@@H](Cc1c[nH]cn1)C(=O)NCC(=O)NCC(=O)NCC(=O)N[C@@H](CO)C(N)=O)[C@@H](C)O` [Seq ID 10, Lys-Met-His-Ala-Thr-Asn-His-Gly-Gly-Gly-Ser] (H-KMHATNHGGGS-NH2), at Hsp16.3 [1], the Kd was ~50 µM and 50 µM. Besides, at Hsp16.3 [3], the “chemical shift of amide protons on addition of Hsp16.3” value was “significant chemical shift occured in both histidines”. For the same compound, at Hsp16.3 [2] (100 µM peptide, A360 at saturation point, ADH:Hsp16.3 5:4), the aggregation restored is on record as ~70%. In addition, the “inhibition of chaperon activity of Hsp16.3” value against Hsp16.3 [2] (25, 50 and 100 µM peptide) is on record as “dose dependent inhibition”. Also, the “influence of peptide alone on aggregation of ADH (only peptide control)” value on Hsp16.3 [2] (ADH + 100 µM peptide, no Hsp16.3) was “does not influence the aggregation of ADH”. Besides, on Hsp16.3 [2], the IC50 was 47 µM and ~47 µM. Moreover, the “inhibition of chaperon activity of alphaB-crystallin” value on human alphaB-crystallin is given as “no inhibition”.
